Measured values: patent US10669227B2 (THE RESEARCH FOUNDATION OF STATE UNIVERSITY OF NEW YORK, priority 2009, dated 2020)
Entries after “also recorded” stand apart in the source; their conditions may differ.

Assays:
IL-1β [1] = assay: Inhibition of IL-1β production by LPS-stimulated monocytes; assay type: cell-based; details: Homo sapiens, Monocyte, 18 h, read-out: % Inhibition of IL-1β produced by stimulated Monocytes with LPS @ 18 h
Procedure: (§1) Briefly, human peripheral blood monocytes (HMs) were isolated from a leukocyte concentrate by density gradient centrifugation (Lymphoprep) and the isolated HMs cultured (2 h, 37° C.) to remove non-adherent cells. The adherent HMs wore cultured for 18 h (1×10^6 cells/well, 24-well plates)±endotoxin (LPS)±different compounds dissolved in DMSO (the final concentration of DMSO in the RPMI serum-free culture media with Pen./Strep. antibiotics was no greater than 0.5%). After incubation, the proinflammatory cytokines, TNFα, […], MCP-1 and IL-6 were measured in the conditioned media by ELISA and cytotoxicity was assessed by measuring the absorbance (490 nm) of formazan produced by reduction of MTS. The HMs alone±0.1-0.5% DMSO produced minimal levels of these pro-inflammatory cytokines. However, addition of 100 ng/ml or 10 μg/ml of LPS both dramatically stimulated cytokine production.

MCP-1 = assay: Inhibition of MCP-1 production by LPS-stimulated monocytes; assay type: cell-based, human
Procedure: as §1
(§2) The cytokine levels were measured by Luminex multiplex, a method that allows the simultaneous measurement of different biological markers.

IL-6 = assay: Inhibition of IL-6 production by LPS-stimulated monocytes; assay type: cell-based; details: Homo sapiens, Monocyte, 18 h, read-out: % Inhibition of IL-6 produced by stimulated Monocytes with LPS @ 18 h
Procedure: as §1

VEGF = VEGF level in LPS-challenged human monocytes, Luminex multiplex; assay type: cell-based; details: 2 μM, FIG. 2
Procedure: as §2

[2] = Solubility in aqueous solutions; assay type: physicochemical; details: comparative
MMP-2 = assay: Diabetic rat, gingiva gelatinase by gelatin zymography (MMP-2); assay type: in vivo; details: diabetic rats, oral daily, 3 weeks
Procedure: (§3) At the end of the treatment protocol, the rats were sacrificed, blood samples were collected, and whole skin (except over limbs) and qingiva were dissected (the skin, because of ample quantities of tissue were analyzed for each rat separately; the gingiva, because of the tiny amounts that could be harvested per rat, were pooled for each experimental group, as prescribed previously for tetracycline studies (30). In addition, the jaw bones were collected, defleshed, and bone loss around the teeth analyzed morphometrically as described previously (42, 43).
This appearance of MMP-9 only in the gingiva (FIG. 10), but not the skin (FIG. 12), of the diabetic rats is likely the result of the oral bacteria inducing inflammation in the gingiva of these immune-suppressed UD rats, whereas the skin is not exposed to this onslaught of bacteria particularly the anaerobic gram-negative bacteria in the mouth that cause periodontal and gingival inflammation.

IL-1β [3] = target: IL-1β (Rattus norvegicus (Rat), UniProt Q63264); assay: Diabetic rat, IL-1β in gingiva extracts by ELISA; assay type: in vivo; details: 3 weeks
Procedure: as §3

[4] = test system: neonatal rat ventricular myocytes; assay: Hydrogen peroxide induced LDH release; assay type: cell-based; details: 10 μM, H2O2 100 μM, 24 h
Procedure: Neonatal rat ventricular myocytes, serum starved for 24 h, were treated with the inhibitors 1 h prior to the addition of 100 μM of hydrogen peroxide (Sigma). LDH release in the conditioned media was quantified using CytoTox-ONE Homogeneous Membrane Integrity Assay reagent (Promega) at the indicated time points.

caspase-3 activity = assay: Doxorubicin mediated caspase-3 activity; assay type: cell-based, rat; details: 10 μM, doxorubicin 500 nM, any time point
Procedure: Neonatal rat ventricular myocytes, serum starved for 24 h, were treated with the inhibitors 1 h prior to the addition of 500 nM of doxorubicin (Sigma). At the indicated time points cells were washed with ice-cold phosphate buffered saline and lysed using RIPA buffer (Pierce) containing protease and phosphatase inhibitors (Sigma). Caspase-3 activity in the cell lysates was measured by incubation with 7-amino-4-trifluoromethyl coumarin (Enzo).

SMILES: COC(=O)C(C(=O)/C=C/c1ccc(O)c(OC)c1)C(=O)/C=C/c1ccc(O)c(OC)c1 [Compound 1, 1,7-Bis(4-hydroxy-3-methoxyphenyl)-4-methoxycarbonylhepta-1E,6E-dien-3,5-dione]
- inhibition at 2 µM (IL-1β [1]; 2 uM): 41%
- inhibition at 25 µM (IL-1β [1]; 25 uM): 100%
- inhibition at 50 µM (IL-1β [1]; 50 uM): 100%
- MCP-1 level in LPS-challenged human monocytes, Luminex multiplex (MCP-1; 2 μM, FIG. 2): potent in reducing
- inhibition at 2 µM (MCP-1; Homo sapiens, Monocyte, 18 h, 2 uM, read-out: % Inhibition of MCP-1 produced by stimulated Monocytes with LPS @ 18 h): 74%
- inhibition at 25 µM (MCP-1; Homo sapiens, Monocyte, 18 h, 25 uM, read-out: % Inhibition of MCP-1 produced by stimulated Monocytes with LPS @ 18 h): 78%
- inhibition at 50 µM (MCP-1; Homo sapiens, Monocyte, 18 h, 50 uM, read-out: % Inhibition of MCP-1 produced by stimulated Monocytes with LPS @ 18 h): 79%
- inhibition at 2 µM (IL-6; 2 uM): 30%
- inhibition at 25 µM (IL-6; 25 uM): 100%
- inhibition at 50 µM (IL-6; 50 uM): 100%
- VEGF level in LPS-challenged human monocytes, Luminex multiplex (VEGF): potent in reducing
- Solubility [2]: improved solubility; also recorded: more soluble than the insoluble natural product curcumin
- Pro- and activated-forms of MMP-2 in gingiva (MMP-2): neither diabetes nor compound 1 appeared to have a detectable effect
- Reduction of IL-1β in gingiva vs untreated diabetic (IL-1β [3]; higher oral dose (500 mg/kg)): 95%
- Reduction of IL-1β in gingiva vs untreated diabetic (IL-1β [3]; lower dose (100 mg/kg)): about 18%
- LDH release [4]: less dramatic effect
- Effect on doxorubicin mediated caspase-3 activity (caspase-3 activity): None of the MMP inhibitors, including compound 1, negatively modulate caspase-3 activity
